Format in all cases: functional
Assay [1] relates to Tetranychus urticae. The experiment in a line: Acaricidal against Tetranychus urticae (two-spotted spider mite) assessed as mortality at 3.1 ppm.
Assay [2] has as its system Tetranychus urticae. Description: Acaricidal against Tetranychus urticae (two-spotted spider mite) assessed as mortality at 12.5 ppm.
The test system of assay [3] is Tetranychus urticae. Description: Acaricidal against Tetranychus urticae (two-spotted spider mite) assessed as mortality at 50 ppm.
Assay [4] deals with Tetranychus urticae. Description: Acaricidal against Tetranychus urticae (two-spotted spider mite) assessed as mortality at 200 ppm.
Assay [5] relates to Tetranychus urticae. Description: Acaricidal against Tetranychus urticae (two-spotted spider mite) assessed as mortality at 500 ppm.

This passage reports Activity results from ChEMBL document CHEMBL3045419, “Synthesis and Acaricidal Activity of N-(3-Pyridylmethyl)pyrazolecarboxamide Derivatives” (1997).

Molecules are shown by their SMILES.

Turning to `CCc1nn(C)c(C(=O)NCc2ccc(OCC(F)(F)C(F)(F)F)nc2)c1Cl`, the Activity turned out to be 30% in the assay on Tetranychus urticae [1]; 80% in the assay on Tetranychus urticae [2]; 100% in the assay with Tetranychus urticae [3]; 100% with Tetranychus urticae [4]; 100% with Tetranychus urticae [5].

Turning to `CCc1nn(C)c(C(=O)NCc2ccc(OC(C)C)nc2)c1Cl`, the Activity in the assay with Tetranychus urticae [1] is recorded as 0%; in the assay on Tetranychus urticae [2], 30%; with Tetranychus urticae [3] it was 80%; with Tetranychus urticae [4], 100%; with Tetranychus urticae [5] it was 100%.

Take `CCc1nn(C)c(C(=O)NCc2cccnc2)c1Cl`: the Activity in the assay with Tetranychus urticae [1] came to 0%; in the assay on Tetranychus urticae [2], 0%; in the assay on Tetranychus urticae [3], 0%; in the assay with Tetranychus urticae [4], 0%; with Tetranychus urticae [5], 30%.

As for `CCc1nn(C)c(C(=O)NCc2ccc(OCCCC(F)(F)F)nc2)c1Cl`, the Activity in the assay on Tetranychus urticae [1] stood at 30%; in the assay with Tetranychus urticae [2] it was 80%; in the assay on Tetranychus urticae [3] it was 100%; in the assay with Tetranychus urticae [4], 100%; in the assay on Tetranychus urticae [5] it was 100%.

As to `CCCc1ccc(CNC(=O)c2c(Cl)c(CC)nn2C)cn1`, the Activity in the assay with Tetranychus urticae [1] came to 0%; in the assay with Tetranychus urticae [2], 0%; with Tetranychus urticae [3], 30%; with Tetranychus urticae [4], 80%; in the assay on Tetranychus urticae [5], 100%.

As for `CCc1nn(C)c(C(=O)NCc2ccc(CC(C)(C)C)nc2)c1Cl`, the Activity was 30% in the assay with Tetranychus urticae [1]; 100% in the assay on Tetranychus urticae [2]; 100% in the assay with Tetranychus urticae [3]; 100% in the assay on Tetranychus urticae [4]; 100% in the assay on Tetranychus urticae [5].

On to `CCCCOc1ccc(CNC(=O)c2c(Cl)c(CC)nn2C)cn1`, for which the Activity in the assay on Tetranychus urticae [1] is 30%; with Tetranychus urticae [2] it was 30%; in the assay on Tetranychus urticae [3], 80%; in the assay with Tetranychus urticae [4], 100%; in the assay with Tetranychus urticae [5], 100%.

On to `CCc1nn(C)c(C(=O)NCc2ccc(CC(C)C)nc2)c1Cl`, for which the Activity was determined as 0% with Tetranychus urticae [1]; 30% with Tetranychus urticae [2]; 100% in the assay with Tetranychus urticae [3]; 100% in the assay with Tetranychus urticae [4]; 100% in the assay on Tetranychus urticae [5].

In the case of `CCc1nn(C)c(C(=O)NCc2ccc(OCC(F)(F)C(F)(F)C(F)(F)F)nc2)c1Cl`, the Activity is 80% with Tetranychus urticae [1]; 100% in the assay on Tetranychus urticae [2]; 100% in the assay with Tetranychus urticae [3]; 100% with Tetranychus urticae [4]; 100% with Tetranychus urticae [5].

Consider `CCCCc1ccc(CNC(=O)c2c(Cl)c(CC)nn2C)cn1`, for which the Activity in the assay on Tetranychus urticae [1] was found to be 0%; with Tetranychus urticae [2] it was 30%; in the assay on Tetranychus urticae [3], 100%; in the assay on Tetranychus urticae [4], 100%; in the assay with Tetranychus urticae [5], 100%.

On to `CCc1nn(C)c(C(=O)NCc2ccc(OC(C)C(F)(F)F)nc2)c1Cl` (stereo not given), for which the Activity in the assay on Tetranychus urticae [1] is reported as 30%; in the assay on Tetranychus urticae [2], 100%; in the assay with Tetranychus urticae [3] it was 100%; with Tetranychus urticae [4], 100%; in the assay on Tetranychus urticae [5] it was 100%.

On to `CCc1nn(C)c(C(=O)NCc2ccc(C(C)(C)C)nc2)c1Cl`, for which the Activity worked out at 80% in the assay on Tetranychus urticae [1]; 100% in the assay with Tetranychus urticae [2]; 100% in the assay on Tetranychus urticae [3]; 100% with Tetranychus urticae [4]; 100% in the assay with Tetranychus urticae [5].

In the case of `CCCCCc1ccc(CNC(=O)c2c(Cl)c(CC)nn2C)cn1`, the Activity with Tetranychus urticae [1] is given as 0%; with Tetranychus urticae [2], 100%; with Tetranychus urticae [3] it was 100%; in the assay with Tetranychus urticae [4], 100%; in the assay on Tetranychus urticae [5], 100%.

As to `CCc1nn(C)c(C(=O)NCc2ccc(C(C)C)nc2)c1Cl`, the Activity is given as 0% in the assay with Tetranychus urticae [1]; 30% in the assay with Tetranychus urticae [2]; 100% with Tetranychus urticae [3]; 100% with Tetranychus urticae [4]; 100% in the assay on Tetranychus urticae [5].

Take `CCc1nn(C)c(C(=O)NCc2ccc(OCC(F)(F)C(F)F)nc2)c1Cl`: the Activity is 30% in the assay on Tetranychus urticae [1]; 80% in the assay on Tetranychus urticae [2]; 100% in the assay with Tetranychus urticae [3]; 100% in the assay with Tetranychus urticae [4]; 100% in the assay on Tetranychus urticae [5].

For `CCCOc1ccc(CNC(=O)c2c(Cl)c(CC)nn2C)cn1`, the Activity is recorded as 0% in the assay on Tetranychus urticae [1]; 0% in the assay with Tetranychus urticae [2]; 30% in the assay with Tetranychus urticae [3]; 30% in the assay with Tetranychus urticae [4]; 80% in the assay with Tetranychus urticae [5].

`CCc1nn(C)c(C(=O)NCc2cnccc2C(C)(C)C)c1Cl`: the Activity in the assay on Tetranychus urticae [1], in the assay on Tetranychus urticae [2], in the assay on Tetranychus urticae [3], with Tetranychus urticae [4] and in the assay with Tetranychus urticae [5] was 100% each time.
